Values quoted from earlier work as cited in US20210401795A1, “Compressible Cannabinoid Pharmaceutical Composition” (Imbucanna, Inc., priority 2019, published 2021).

Assays:
[1] = pure CBD, twice-daily dosages, pediatric patients; ranging from total seizure freedom to the stated reductions
[2] = not given; remark: listed apart in the source

Compound	solubility in water	seizure reduction [1]	duration of appetite stimulant effect ([2]; after administration)	duration of action for psychoactive effects ([2]; after oral administration)	onset of action ([2]; after oral administration)	peak effect ([2]; after oral administration)
C=C(C)[C@@H]1CCC(C)=C[C@H]1c1c(O)cc(CCCCC)cc1O [CBD, cannabidiol]	poorly soluble in water	25-80%				
CCCCCc1cc(O)c2c(c1)OC(C)(C)[C@@H]1CCC(C)=C[C@@H]21 [Dronabinol, (−)-trans-Δ^9-tetrahydrocannabinol]			≥ 24 h	4 to 6 h	0.5 to 1 h	2 to 4 h
